These results are taken from patent US6117840A, “CS-1 peptidomimetics, compositions and methods of using the same” (Cytel Corporation, priority 1997, dated 2000).

Read-outs that look alike come from different tables or passages of the source. Square brackets hold non-standard residues; d marks the D form. Peptide text beside a SMILES is read from it. * marks the point of attachment. PhAc = O=C(Cc1ccccc1)*

The target in one experiment is T1, VLA-4 (Homo sapiens, UniProt P05556+P13612).
T1 construct: host or cells: Jurkat (human T lymphoblastic line)
T1 sequence (P13612 34-1032): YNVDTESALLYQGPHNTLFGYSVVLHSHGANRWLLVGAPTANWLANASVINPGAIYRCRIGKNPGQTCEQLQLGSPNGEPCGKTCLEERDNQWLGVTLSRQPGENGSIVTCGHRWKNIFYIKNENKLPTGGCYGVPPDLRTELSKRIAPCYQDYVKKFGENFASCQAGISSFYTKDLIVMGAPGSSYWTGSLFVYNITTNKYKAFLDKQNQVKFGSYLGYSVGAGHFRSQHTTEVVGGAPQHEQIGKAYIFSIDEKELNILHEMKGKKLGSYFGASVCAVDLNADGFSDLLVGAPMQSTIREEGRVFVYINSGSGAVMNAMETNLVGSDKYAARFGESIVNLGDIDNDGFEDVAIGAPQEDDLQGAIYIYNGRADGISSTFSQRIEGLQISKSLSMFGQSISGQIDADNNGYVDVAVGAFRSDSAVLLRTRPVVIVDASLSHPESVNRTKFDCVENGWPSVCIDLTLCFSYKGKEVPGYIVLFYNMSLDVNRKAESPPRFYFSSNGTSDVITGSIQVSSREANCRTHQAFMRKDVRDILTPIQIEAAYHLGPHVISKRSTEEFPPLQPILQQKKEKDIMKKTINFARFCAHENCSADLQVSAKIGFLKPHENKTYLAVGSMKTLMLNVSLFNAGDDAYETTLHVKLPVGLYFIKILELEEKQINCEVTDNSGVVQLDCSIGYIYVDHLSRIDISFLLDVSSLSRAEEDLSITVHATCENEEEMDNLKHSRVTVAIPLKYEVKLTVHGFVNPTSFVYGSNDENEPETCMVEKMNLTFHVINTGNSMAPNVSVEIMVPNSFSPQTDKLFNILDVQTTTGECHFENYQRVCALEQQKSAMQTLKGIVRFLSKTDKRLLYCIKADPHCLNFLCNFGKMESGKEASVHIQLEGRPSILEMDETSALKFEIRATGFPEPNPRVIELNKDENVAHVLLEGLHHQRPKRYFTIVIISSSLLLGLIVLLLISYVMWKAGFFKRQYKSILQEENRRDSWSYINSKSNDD
T1 sequence (P05556 21-798): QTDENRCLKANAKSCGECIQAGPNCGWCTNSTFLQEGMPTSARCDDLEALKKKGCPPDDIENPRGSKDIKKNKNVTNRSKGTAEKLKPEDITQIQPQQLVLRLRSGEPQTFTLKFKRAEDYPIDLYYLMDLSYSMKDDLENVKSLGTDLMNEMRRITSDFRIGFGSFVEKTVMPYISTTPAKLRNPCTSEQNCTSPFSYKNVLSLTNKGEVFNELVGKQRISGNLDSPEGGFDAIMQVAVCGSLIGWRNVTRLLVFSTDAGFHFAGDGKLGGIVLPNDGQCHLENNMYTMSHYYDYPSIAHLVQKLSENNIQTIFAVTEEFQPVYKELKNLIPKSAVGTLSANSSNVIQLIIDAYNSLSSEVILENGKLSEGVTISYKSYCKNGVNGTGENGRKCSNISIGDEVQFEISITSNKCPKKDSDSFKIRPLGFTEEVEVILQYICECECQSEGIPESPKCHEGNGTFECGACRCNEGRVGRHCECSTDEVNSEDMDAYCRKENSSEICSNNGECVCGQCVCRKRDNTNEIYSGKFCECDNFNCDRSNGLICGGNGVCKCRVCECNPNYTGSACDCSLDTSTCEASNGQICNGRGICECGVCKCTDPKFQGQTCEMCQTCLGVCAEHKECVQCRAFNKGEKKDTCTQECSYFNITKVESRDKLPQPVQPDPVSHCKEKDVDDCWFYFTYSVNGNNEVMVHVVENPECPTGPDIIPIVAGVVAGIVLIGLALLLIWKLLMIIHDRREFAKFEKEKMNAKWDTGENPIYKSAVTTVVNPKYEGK
Type of experiment: cell-based. The following applies: for RELATIVE POTENCY (inhibition of VLA-4 binding CS-1): relative to standard peptide SEQ ID NO:3 (=1), normalized IC50, about one-tenth or less of SEQ ID NO:3 assigned zero. In a few lines:
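⁵¹Cr-labelled Jurkat cells were preincubated with peptide for 30 min at ~22 °C, then allowed to adhere 30 min at 37 °C to wells coated with CS1 peptide or CS1-OVA. After washing, bound cells were SDS-lysed and counted. IC50 is the concentration halving cell binding.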

Another experiment has as its system asthmatic sheep. The experiment can be described thus: Treatment of asthmatic sheep (Ascaris suum antigen). Type of experiment: in vivo. The following applies: for PC400, carbacol dosage to increase SRL 4-fold, 24 hours after challenge: pre-challenge values about 20-23 BU. As for the experimental part:
Six asthmatic sheep were treated in a double blind cross-over study by Dr. William M. Abraham of the Department of Research, Mount Sinai Medical Center, 4300 Alton Road, Miami Beach, Fla. 33140. […] This study was carried out generally as described in Abraham et al., J. Clin. Invest., 93:776-787 (1994).
The inhibitor peptide used here was N--phenylacetyl--Leu--Asp--Phe--D--Pro--NH2, with a control peptide that comprised the previously described peptide having the same residues in a scrambled sequence. The vehicle for the nebulized peptides was phosphate-buffered saline. The peptides were administered at a dose of 1 mg/kg each, twice a day for three days prior to challenge, as well as 0.5 hours prior to and four hours post challenge on day 4. Because this was a crossover study, each animal received one or the other treatment, followed by a rest and then the other treatment. Each animal therefore served as its own control.

As to `CC(C)C[C@H](NC(=O)[C@H](CC(=O)O)NC(=O)Cc1ccccc1)C(=O)N[C@@H](Cc1ccccc1)C(=O)N1CCC[C@@H]1C(N)=O` [X L D F p phenylacetyl amide scrambled, N--phenylacetyl--Asp--Leu--Phe--D--Pro--NH2, reference compound] (PhAc-DLF[dP]-NH2), at VLA-4 (compared to standard 10-mer / B12), the “binding inhibition (in words)” value was “no inhibition of VLA-4”. Also, the figures for the “RELATIVE POTENCY (inhibition of VLA-4 binding CS-1)” value on VLA-4 and on VLA-4 (listed as N--phenylacetyl--Asp--Leu--Phe--D--Pro--NH2) were 0 and under 1, respectively. Also, the “PC400, carbacol dosage to increase SRL 4-fold, 24 hours after challenge” value with asthmatic sheep is on record as “about 12 BU”.
Consider `CC(C)C[C@H](NC(=O)Cc1ccccc1)C(=O)N[C@@H](CC(=O)O)C(=O)N[C@@H](Cc1ccccc1)C(=O)N1CCC[C@@H]1C(N)=O` [X L D F p phenylacetyl amide, N--phenylacetyl--Leu--Asp--Phe--D--Pro--NH2] (PhAc-LDF[dP]-NH2), for which, at VLA-4, the “VLA-4 binding inhibition, times better than the standard 10-mer peptide of SEQ ID NO:3” value is “about 312 times” and the “RELATIVE POTENCY (inhibition of VLA-4 binding CS-1)” value is 313. Moreover, the “change in specific lung resistance (SRL) after challenge (FIG. 7)” value with asthmatic sheep (1 mg/kg nebulized twice a day, versus control peptide) is “less of a change from baseline specific lung resistance”. Further, the “PC400, carbacol dosage to increase SRL 4-fold, 24 hours after challenge” value in the experiment on asthmatic sheep is reported as “about 27 BU”.
